Measured values published in patent EP4706646A1, “NOVEL DOUBLE-STRANDED SIRNA, CONJUGATE THEREOF, AND USE THEREOF” (priority 2023, dated 2024).
Like-named read-outs stand apart in the source and are kept apart here.

Assays:
[1] = test system: Hepatitis B virus; assay: HBV-Tg transgenic mouse experiment, serum HBsAg and HBeAg; format: in vivo, HBV-Tg transgenic mice, C57B/6N-Tg(1.28HBV)/Vst; conditions: 3 mg/kg, single subcutaneous dose
From the text: Experimental Animals: HBV-Tg transgenic mice, C57B/6N-Tg(1.28HBV)/Vst, SPF-grade males, 6-8 weeks old, weighing 16-20 g, were purchased from Beijing Vitalstar Biotechnology Co.,Ltd., Animal Production Certificate No.: SCXK(Beijing)2019-0002. Animals were housed individually in individual cages by Beijing Vitalstar Biotechnology Co.,Ltd.
Animal Grouping: Based on the quantitative results of serum HBsAg (primary) and HBeAg (secondary), animals were stratified and randomly divided into groups, with 5 animals per group.
(§1) Test Sample Preparation and Administration: The required dosage of drug powder was calculated based on the purity of each test sample. At a dosing concentration of 0.6 mg/mL, the corresponding saline solution was added and mixed by vortexing until a colorless, transparent liquid was obtained. The day of the first administration was defined as Day 0. All groups received a single subcutaneous dose of 5 mL/kg on Day 0. If blood sampling was required on the day of dosing, it was performed after blood collection.
Main Outcome Measures: Animals were weighed and blood was collected once on Days 3, 7, 14, 21, 28 and 35. Serum was separated for HBsAg and HBeAg level determination.
(§2) Serum HBsAg and HBeAg Level Determination: After blood collection, serum was separated, diluted with PBS, and submitted for analysis. From each sample, 10 µL of serum was removed and diluted to 500 µL (50-fold dilution) with PBS. Serum HBsAg and HBeAg levels were measured using a Hepatitis B e Antigen Assay Kit (Mike Biotech) and a Hepatitis B Surface Antigen Assay Kit (Mike Biotech), respectively.

[2] = test system: hepatitis B virus (HBV); assay: Anti-HBV activity in the PHH in vitro infection model (transfection or free uptake); format: cell-based, HBV serotype D; conditions: for EC50: PHH infected with HBV serotype D, supernatant Day 8
Protocol: Transfection and Drug Dosing: On Day 0, revived PHH were adjusted to an appropriate density (6.67E+05 cells/ml) and seeded into 48-well cell culture plates at 1.32E+05 cells per well. On Day 1, HBV serotype D was added to infect PHH (800 GE/cell). On Day 2, fresh medium was replaced. On Day 4, the cell culture medium was discarded, and the test compound was serially diluted to the required concentration, which were then introduced into the cells via transfection using Lipofectamine™ RNAiMAX. The starting concentration of the test compound was 500 pM, and 5-fold dilutions were performed. Seven concentrations were set up in duplicate, with wells containing only the transfection reagent as the medium control. Four to five hours after transfection, fresh medium without compound was replaced. The final DMSO concentration in the medium was 2%. On Day 6, fresh medium without compound was replaced. On Day 8, cell supernatants were harvested, and cell viability was assessed using CCK-8 assay.
Drug Administration via Ad libitum uptake : On day 0, the test compound was diluted to the desired concentration in enzyme-free water, starting at 500 nM. Five-fold dilutions were performed, each with seven concentrations, in duplicate, with 22 µl added to each well of the cell culture plate. Thawed frozen PHHs were plated to an appropriate density (6.67E+05 cells/ml), with 1.32E+05 cells per well. The cells were then plated and allowed to ad libitum uptake of the test compound. On day 1, the medium was changed, and the PHHs were infected with HBV serotype D (800 GE/cell). On day 2, fresh medium was replaced without virus or test compound. The final DMSO concentration in the medium was 2%. On Day 4 and 6, fresh medium without test compound was replaced. On Day 8, cell supernatants were harvested, and cell viability was assessed using CCK-8 assay.
Sample testing: qPCR was used to detect the HBV DNA content in the cell culture supernatant; ELISA was used to detect the HBsAg and HBeAg content in the cell culture supernatant. The experimental results of the double-stranded siRNA conjugate of the present invention reducing the levels of HBsAg, HBeAg and DNA in cells are shown in Table 3. Table 3: Experimental results of the double-stranded siRNA conjugates of the present invention in reducing the levels of HBsAg, HBeAg and DNA in cells

[3] = test system: Hepatitis B virus; assay: Hepatitis B virus AAV mouse experiment, serum HBsAg and HBeAg; format: in vivo, rAAV8-1.3HBV/C57BL/6 Mouse; conditions: 3 mg/kg, single subcutaneous dose
From the text: Preparation and Grouping of rAAV8-1.3HBV/C57BL/6 Mouse Model: A persistent HBV infection mouse model was established by tail vein injection of rAAV8-1.3HBV (strain C) into C57 mice. The AAV virus injection dose was 1E+11 vg/mouse. Six weeks after injection, blood samples were collected for analysis of serum HBeAg, HBsAg and ALT levels. Based on the quantitative results of serum HBsAg (primary) and HBeAg (secondary), 35 mice were randomly divided into stratified groups, with 5 mice per group.
as §1, with “collection. Main Outcome Measures: Mice were weighed and blood was collected once on Days 3, 7, 14, 21 and 28. Serum was separated for HBsAg and HBeAg level determination.” for “collection.”
as §2, with “Kit” for “Kit (Mike Biotech)”, “Kit,” for “Kit (Mike Biotech),”

[4] = compared with vehicle control group
[5] = No transfection (ad libitum uptake, Day 0), ELISA, read-out: Experimental results EC50 HBeAg
[6] = No transfection (ad libitum uptake, Day 0), ELISA, read-out: Experimental results EC50 HBsAg
[7] = No transfection (ad libitum uptake, Day 0), qPCR, read-out: Experimental results EC50 DNA

Row | Substance | inhibitory activity on HBsAg compared with control DAW30025 (S149) ([1]; Figure 1) | inhibitory effect on reducing HBeAg [1, 4] | inhibitory effects on HBsAg ([1]; compared with vehicle control group, Figure 1) | EC50 [2, 5] [nM] | EC50 [2, 6] [nM] | EC50 [2, 7] [nM] | EC50 ([2]; Transfection (RNAiMAX, Day 4), ELISA, read-out: Experimental results EC50 HBeAg) [nM] | EC50 ([2]; Transfection (RNAiMAX, Day 4), ELISA, read-out: Experimental results EC50 HBsAg) [nM] | EC50 ([2]; Transfection (RNAiMAX, Day 4), qPCR, read-out: Experimental results EC50 DNA) [nM] | inhibitory activity against HBsAg, HBeAg and DNA ([2]; statement in words on Table 3) | inhibitory activity against HBsAg, HBeAg and DNA compared with control S148 ([2]; without transfection) | inhibitory activity against HBsAg compared with controls DAW30025 (S149) and DAW30336 (S151) ([3]; Figure 2) | inhibitory effect on reducing HBeAg [3, 4] | inhibitory effects on HBsAg ([3]; compared with vehicle control group, Figure 2)
1 | S146: double-stranded siRNA conjugate; sense strand-conjugation group SEQ ID NO 21, antisense SEQ ID NO 27 u•G•ugaAYCGaaguGcAcac•u•u (sense GUGUGCACUUCGCUUCYCA; antisense UGUGAAYCGAAGUGCACACUU; conjugation group on sense strand, modifications, key not given here; listed as Albies alba) | significantly superior to that of the control group | a certain inhibitory effect | significant inhibitory effects | 2.24 | 0.782 | 0.737 | 0.209 | 0.05 | 0.082 | good inhibitory activity | significantly better than that of the control S148 |  |  | 
2 | S147: double-stranded siRNA conjugate; sense strand-conjugation group SEQ ID NO 41, antisense SEQ ID NO 27 u•G•ugaAYCGaaguGcAcac•u•u (sense GUGUGCACUUCGCUUYACA; antisense UGUGAAYCGAAGUGCACACUU; conjugation group on sense strand, modifications, key not given here; listed as Albies alba) |  |  |  |  |  |  |  |  |  |  |  | significantly better than that of the controls | a certain inhibitory effect | significant inhibitory effects
3 | S148: control double-stranded siRNA conjugate; sense strand-conjugation group SEQ ID NO 42, antisense SEQ ID NO 33 (sense GUGUGCACUUCGCUUCACA; antisense TGTGAAGCGAAGTGCACACTT; conjugation group on sense strand, position not given here; listed as Albies alba) [reference compound] |  |  |  | 7.42 | 2.9 | 5.72 |  |  |  |  |  |  |  | 
